We go through 12 compounds from BindingDB's records for PubMed 7965790 (University of Nebraska, 1994).

SMILES strings stand for the structures.

Experiment [1] has as its target T1, Alpha-2A adrenergic receptor (Sus scrofa, UniProt P18871).
T1 sequence (P18871 whole entry): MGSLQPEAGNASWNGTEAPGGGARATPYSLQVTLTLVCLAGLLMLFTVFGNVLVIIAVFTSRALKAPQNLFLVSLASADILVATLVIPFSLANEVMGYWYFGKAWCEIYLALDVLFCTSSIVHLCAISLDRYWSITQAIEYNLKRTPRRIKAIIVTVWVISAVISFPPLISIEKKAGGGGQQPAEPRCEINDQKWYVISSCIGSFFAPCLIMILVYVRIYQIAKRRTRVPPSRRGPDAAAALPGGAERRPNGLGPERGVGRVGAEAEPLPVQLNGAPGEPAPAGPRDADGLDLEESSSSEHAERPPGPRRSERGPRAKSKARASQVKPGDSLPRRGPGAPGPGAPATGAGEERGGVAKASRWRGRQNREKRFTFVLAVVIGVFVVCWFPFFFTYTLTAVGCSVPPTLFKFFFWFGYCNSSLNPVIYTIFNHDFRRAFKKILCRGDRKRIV

Experiment [2] has as its target T2, Alpha-2A adrenergic receptor [16-465] (Rattus norvegicus, UniProt P22909).
T2 construct: 16-465
T2 sequence (P22909 whole entry): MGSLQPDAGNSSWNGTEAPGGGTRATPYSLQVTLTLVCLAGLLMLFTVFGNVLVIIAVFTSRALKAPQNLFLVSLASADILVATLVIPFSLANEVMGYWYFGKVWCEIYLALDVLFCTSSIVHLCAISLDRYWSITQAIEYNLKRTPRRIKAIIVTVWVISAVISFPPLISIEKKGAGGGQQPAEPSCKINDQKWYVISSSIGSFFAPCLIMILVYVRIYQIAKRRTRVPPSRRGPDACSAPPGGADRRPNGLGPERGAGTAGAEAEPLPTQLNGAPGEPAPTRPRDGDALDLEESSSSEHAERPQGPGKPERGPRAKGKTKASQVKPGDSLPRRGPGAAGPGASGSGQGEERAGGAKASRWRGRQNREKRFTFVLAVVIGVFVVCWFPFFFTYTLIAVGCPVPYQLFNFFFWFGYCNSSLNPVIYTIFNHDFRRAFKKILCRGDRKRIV

Experiment [3] concerns the target T3, Alpha-2A adrenergic receptor (Bos taurus, UniProt Q28838).
T3 sequence (Q28838 whole entry): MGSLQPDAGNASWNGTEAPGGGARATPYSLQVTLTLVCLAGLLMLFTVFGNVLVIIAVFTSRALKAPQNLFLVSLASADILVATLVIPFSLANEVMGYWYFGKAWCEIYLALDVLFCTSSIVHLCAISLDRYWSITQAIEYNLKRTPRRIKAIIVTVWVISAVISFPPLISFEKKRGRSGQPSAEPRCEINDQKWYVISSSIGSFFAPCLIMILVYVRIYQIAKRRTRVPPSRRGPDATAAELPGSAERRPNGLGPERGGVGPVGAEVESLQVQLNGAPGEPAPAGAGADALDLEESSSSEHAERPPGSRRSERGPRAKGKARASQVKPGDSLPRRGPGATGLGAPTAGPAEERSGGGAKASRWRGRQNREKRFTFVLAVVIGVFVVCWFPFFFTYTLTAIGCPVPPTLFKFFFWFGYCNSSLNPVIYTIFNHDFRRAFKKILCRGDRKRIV

For `O=C1NCN(c2ccccc2)C12CCN(CC1COc3ccccc3O1)CC2` (centres undefined) [8-(2,3-Dihydro-benzo[1,4]dioxin-2-ylmethyl)-1-phenyl-1,3,8-triaza-spiro[4.5]decan-4-one], the Ki – broadly, the dissociation constant of the complex between target and ligand, obtained from inhibition or displacement – in experiment [1] worked out at 0.00336 µM; in experiment [2] it was 0.07 µM; in experiment [3], 0.0105 µM.
Regarding `COC(=O)C1=CO[C@@H](C)[C@@H]2CN3CCc4c([nH]c5ccccc45)[C@H]3C[C@H]12` [AKUAMMIGINE], the Ki stood at 1.21 µM in experiment [2] and 1.83 µM in experiment [3].
Consider `COC(=O)C1=COC(C)C2CN3CCc4c([nH]c5ccccc45)C3CC12` (centres undefined) [Ajmalicine], for which the Ki in experiment [1] turned out to be 0.01 µM; in experiment [2], 0.289 µM; in experiment [3], 0.653 µM.
With `CN1C[C@H](Cn2ccnc2-c2ccccc2)C[C@@H]2c3cccc4[nH]c(Br)c(c34)C[C@H]21` [BAM-1303], the Ki in experiment [1] was 0.00052 µM; in experiment [2], 0.035 µM; in experiment [3], 0.149 µM.
Turning to `COc1ccccc1N1CCN(CCC2C(=O)c3ccccc3C(C)(C)C2=O)CC1` (centres undefined) [NSC_122211], the Ki is 0.365 µM in experiment [1], 0.749 µM in experiment [2] and 0.352 µM in experiment [3].
In the same order, the values of `COc1cccc(OC)c1OCCNCC1Oc2ccccc2OC1c1ccccc1` (centres undefined) [NSC_185453] are 0.00095 µM, 0.046 µM and 0.0132 µM.
Take `NCC(O)c1ccc(O)c(O)c1` (stereo not drawn) [Noradrenaline,(+)]: the values for the Ki in experiment [1] and in experiment [3] were 0.371 µM and 1.09 µM, respectively.
`CC(C)=CCOc1ccc(Cl)c2c1CCN(C)CC2` [SK&F-104078]: the figures for the Ki in experiment [1], in experiment [2] and in experiment [3] were 0.035 µM, 0.248 µM and 0.153 µM, respectively.
The compound `Cc1ccc(N(CC2=NCCN2)c2cccc(O)c2)cc1` [SMR000059054] had a Ki in experiment [1] of 0.00287 µM.
Take `Cc1cc(C(C)(C)C)c(O)c(C)c1CC1=NCCN1` [SMR000059324]: the results for the Ki in experiment [1] and in experiment [3] were 0.00319 µM and 0.035 µM, respectively.
In the same order, the values of `CN(C)CCCN1c2ccccc2Sc2ccc(Cl)cc21` [[3-(2-Chloro-phenothiazin-10-yl)-propyl]-dimethyl-amine(Chlorpromazine)] are 0.064 µM and 0.884 µM.
On the same counts, the results for `COc1cc2nc(N3CCN(C(=O)c4ccco4)CC3)nc(N)c2cc1OC` [[3H]-Minipress] are 1.16 µM and 1.37 µM.
